# Measurements published in patent US4226883A, “Carbamate derivatives and method for manufacture thereof” (priority 1974, dated 1980).
# Biological target: cholinesterase (ChE), susceptible strain
# Experiment: Inhibition of cholinesterase (acetylthiocholine method), susceptible strain enzyme
# Type: biochemical, green rice leafhopper, Nephotettix cincticeps
# Conditions: 50% inhibition concentration, 30° C. 30 min with inhibitor, read-out: Inhibition of Cholinesterase I50 (M) S
# Description: The activity of ChE was performed by the acethyethiocholine method [Ellman (1961), Biochemical Pharmacology 7: 88-95].
# […]. After centrifuged (30,000 g, 10 min.), the supernatant was used as the source of ChE.
# (§1) (2) Inhibition: 1.0 ml of enzyme solution was incubated with 0.1 ml of inhibitor which diluted with acetone at 30° C. for 30 min. ((2) solution).
# (3) Determination of ChE activity: 1.0 ml of acetylthiochline (3.5/2×10^-2 M), 1.0 ml of DTNB (5,5'-dithiobis-2-nitrobenzoic acid, 2.5×10^-4 M) and 4.0 ml of phosphate buffer (1/15 M, pH 7.4) were added to the (2) solution and incubated at 30° C. for 10 min. After incubation, […] of eserine (2×10^-3 M) was added in order to stop the enzyme reaction and the optical density of the yellow solution was measured at 412 mμ on the spectrophotometer.
row,SMILES,IC50
1,"C#CCOc1ccccc1OC(=O)NC [Compound 90, reference compound]",8.2e-06 M
2,"CNC(=O)Oc1ccccc1 [Compound 140, reference compound]",0.00013 M
3,CCCCNC(=O)Oc1cc(C)cc(C(C)C)c1 [Compound 48],> 0.001 M
4,CCCCNC(=O)Oc1cccc(C(C)C)c1 [Compound 14],7.4e-05 M
5,CCCCNC(=O)Oc1ccc(C)c(C)c1 [Compound 38],0.00056 M
6,"CNC(=O)Oc1ccccc1NC(C)C [Compound 110, reference compound]",2.3e-06 M

# System: cholinesterase (ChE), resistant strain
# Experiment: not given
# Type: biochemical, green rice leafhopper, Nephotettix cincticeps
# Conditions: ratio of the resistant strain to the susceptible strain (I50); 30 min
# Description: After centrifuged (30,000 g, 10 min.), the supernatant was used as the source of ChE.
# as §1
# (3) Determination of ChE activity: 1.0 ml of acetylthiochline (3.5/2×10^-2 M), 1.0 ml of DTNB (5,5'-dithiobis-2-nitrobenzoic acid, 2.5×10^-4 M) and 4.0 ml of phosphate buffer (1/15 M, pH 7.4) were added to the (2) solution and incubated at 30° C. for 10 min.
row,SMILES,Inhibition of Cholinesterase R/S (resistant ratio)
1,C=CCNC(=O)Oc1cccc(C(C)CCC)c1 (centres unmarked) [Compound 23],0.3
2,"C#CCOc1ccccc1OC(=O)NC [Compound 90, reference compound]",9.6
3,CCCCNC(=O)Oc1cc(C)cc(C(C)C)c1 [Compound 48],< 0.09
4,CCCCNC(=O)Oc1cccc(C(C)C)c1 [Compound 14],0.2
5,CCCCNC(=O)Oc1ccc(C)c(C)c1 [Compound 38],0.04
6,"CNC(=O)Oc1ccccc1NC(C)C [Compound 110, reference compound]",73.9

# Same assay, conditions: resistant strain; 10^-3 M
row,SMILES,"rate of inhibition (%) in 10^-3 M, R"
1,"CNC(=O)Oc1ccccc1 [Compound 140, reference compound]",42.5%

# Same assay, conditions: resistant strain; 50% inhibition concentration; 30° C. 30 min with inhibitor; read-out: Inhibition of Cholinesterase I50 (M) R
row,SMILES,IC50
1,C=CCNC(=O)Oc1cccc(C(C)CCC)c1 (centres unmarked) [Compound 23],1.3e-06 M
2,"C#CCOc1ccccc1OC(=O)NC [Compound 90, reference compound]",7.9e-05 M
3,"CNC(=O)Oc1ccccc1 [Compound 140, reference compound]",> 0.001 M
4,CCCCNC(=O)Oc1cc(C)cc(C(C)C)c1 [Compound 48],8.8e-05 M
5,CCCCNC(=O)Oc1cccc(C(C)C)c1 [Compound 14],1.7e-05 M
6,CCCCNC(=O)Oc1ccc(C)c(C)c1 [Compound 38],2e-05 M
7,"CNC(=O)Oc1ccccc1NC(C)C [Compound 110, reference compound]",0.00017 M

# System: resistant green rice leafhoppers (R)
# Experiment: not given
# Conditions: compound alone; 1440 min
# Description: (1) A 20-mg portion of a given test compound was weighed out and dissolved in 10 ml of acetone. The resultant solution was diluted at proper times with acetone.
# (2) With a micro-syringe, the acetone solution of the test compound was topically applied to the thoracic region of female green rice leafhoppers at a fixed dose of 0.2 μl per head.
# (3) The female green rice leafhoppers thus treated were placed in a plastic cup prepared in advance (measuring 7 cm in diameter and 3.5 cm in depth and containing rice seeds) and kept at a constant temperature of 26±1° C. After 24 hours' standing, the dead insects were counted.
# In the case of a mixed insecticide, the LD50 was shown as a total dosage.
row,SMILES,"Effect of individual compound, LD50 (μ g/g) (Table 5-2)"
1,"CNC(=O)Oc1ccccc1OC(C)C [Compound 81, 2-isopropoxyphenyl-N-methylcarbamate, reference compound]",> 100 μ g/g

# Same assay, conditions: ratio of the resistant strain to the susceptible strain (LD50); 1440 min
row,SMILES,Insecticidal Activity R/S (resistant ratio)
1,C=CCNC(=O)Oc1cccc(C(C)CCC)c1 (centres unmarked) [Compound 23],0.7
2,"CCCNC(=O)Oc1cc(C)cc(C(C)C)c1 [Compound 47, 3-methyl-5-isopropylphenyl-N-n-propylcarbamate]",1.4
3,"C=CCNC(=O)Oc1ccccc1C(C)CC (centres unmarked) [Compound 10, 2-sec-butylphenyl-N-allylcarbamate]",4.3
4,"C=CCNC(=O)Oc1ccc(C)c(C)c1 [Compound 39, 3,4-dimethylphenyl-N-allylcarbamate]",0.8
5,"C=CCNC(=O)Oc1cccc(C)c1 [Compound 28, 3-methylphenyl-N-allylcarbamate]",1.8
6,"CNC(=O)Oc1cc(C)cc(C(C)C)c1 [Compound 45, 3-methyl-5-isopropylphenyl-N-methylcarbamate, reference compound]",11.6
7,"CCNC(=O)Oc1cc(C)cc(C(C)C)c1 [Compound 46, 3-methyl-5-isopropylphenyl-N-ethylcarbamate]",0.9

# System: green rice leafhoppers of the strain RN
# Experiment: Test Example 3: dust spray test (20 mesh metal gauze cylinder)
# Type: in vivo, Nephotettix cincticeps
# Conditions: 2% dust; 100 mg; 24 hr; read-out: Mortality (%) after 24 hr., 100 mg Spray (Table 7)
# Description: The insecticides in the form of dust were tested for insecticidal activity.
# The test for insecticidal activity was performed by the following procedure. […] The dust of a test compound (pulverized by means of a shaking pulverizer made by Taira Kosakusho, Ltd.) was applied onto the tube contents at a prescribed rate by spraying from outside the metal gauze by means of a bell-jar duster. The dust of the test compound was prepared uniformly mixing 2 parts of the dust of the individual compound or 1 part each of the dusts of the mixture components (total 2 parts) and 98 parts of a carrier obtained by mixing talc and clay in equal volumes.
row,SMILES,mortality at 100 mg/cylinder
1,"CCCNC(=O)Oc1cc(C)cc(C(C)C)c1 [Compound 47, 3-methyl-5-isopropylphenyl-N-n-propylcarbamate]",70%
2,"C=CCNC(=O)Oc1ccc(C)c(C)c1 [Compound 39, 3,4-dimethylphenyl-N-allylcarbamate]",50%
3,"C=CCNC(=O)Oc1cccc(C)c1 [Compound 28, 3-methylphenyl-N-allylcarbamate]",60%
4,"CNC(=O)Oc1cc(C)cc(C(C)C)c1 [Compound 45, 3-methyl-5-isopropylphenyl-N-methylcarbamate, reference compound]",0%
5,"CCNC(=O)Oc1cc(C)cc(C(C)C)c1 [Compound 46, 3-methyl-5-isopropylphenyl-N-ethylcarbamate]",45%

# Same assay, conditions: 2% dust; 250 mg; 24 hr; read-out: Mortality (%) after 24 hr., 250 mg Spray (Table 7)
row,SMILES,mortality at 250 mg/cylinder
1,"CCCNC(=O)Oc1cc(C)cc(C(C)C)c1 [Compound 47, 3-methyl-5-isopropylphenyl-N-n-propylcarbamate]",100%
2,"C=CCNC(=O)Oc1ccccc1C(C)CC (centres unmarked) [Compound 10, 2-sec-butylphenyl-N-allylcarbamate]",100%
3,"C=CCNC(=O)Oc1ccc(C)c(C)c1 [Compound 39, 3,4-dimethylphenyl-N-allylcarbamate]",60%
4,"C=CCNC(=O)Oc1cccc(C)c1 [Compound 28, 3-methylphenyl-N-allylcarbamate]",100%
5,"CNC(=O)Oc1cc(C)cc(C(C)C)c1 [Compound 45, 3-methyl-5-isopropylphenyl-N-methylcarbamate, reference compound]",10%
6,"CCNC(=O)Oc1cc(C)cc(C(C)C)c1 [Compound 46, 3-methyl-5-isopropylphenyl-N-ethylcarbamate]",70%

# Same assay, conditions: Table 9; dust mixed with 1; RN
row,SMILES,"death ratio (%), mixture with Compound No. 1"
1,"CNC(=O)Oc1ccccc1OC(C)C [Compound 81, 2-isopropoxyphenyl-N-methylcarbamate, reference compound]",0%

# Same assay, conditions: Table 9; dust mixed with 6*; RN
row,SMILES,"death ratio (%), mixture with Compound No. 6*"
1,"CNC(=O)Oc1ccccc1OC(C)C [Compound 81, 2-isopropoxyphenyl-N-methylcarbamate, reference compound]",5.0%

# Same assay, conditions: Table 9; dust mixed with 24*; RN
row,SMILES,"death ratio (%), mixture with Compound No. 24*"
1,"CNC(=O)Oc1ccccc1OC(C)C [Compound 81, 2-isopropoxyphenyl-N-methylcarbamate, reference compound]",0%

# Same assay, conditions: Table 9; dust mixed with 35*; RN
row,SMILES,"death ratio (%), mixture with Compound No. 35*"
1,"CNC(=O)Oc1ccccc1OC(C)C [Compound 81, 2-isopropoxyphenyl-N-methylcarbamate, reference compound]",15.0%

# Same assay, conditions: Table 9; dust mixed with 40*; RN
row,SMILES,"death ratio (%), mixture with Compound No. 40*"
1,"CNC(=O)Oc1ccccc1OC(C)C [Compound 81, 2-isopropoxyphenyl-N-methylcarbamate, reference compound]",20.0%

# Same assay, conditions: Table 9; dust mixed with 49*; RN
row,SMILES,"death ratio (%), mixture with Compound No. 49*"
1,"CNC(=O)Oc1ccccc1OC(C)C [Compound 81, 2-isopropoxyphenyl-N-methylcarbamate, reference compound]",0%

# Same assay, conditions: Table 9; dust mixed with 81*; RN
row,SMILES,"death ratio (%), mixture with Compound No. 81*"
1,"CNC(=O)Oc1ccccc1OC(C)C [Compound 81, 2-isopropoxyphenyl-N-methylcarbamate, reference compound]",10.0%

# Same assay, conditions: Table 9; dust mixed with 118*; RN
row,SMILES,"death ratio (%), mixture with Compound No. 118*"
1,"CNC(=O)Oc1ccccc1OC(C)C [Compound 81, 2-isopropoxyphenyl-N-methylcarbamate, reference compound]",57.5%

# Same assay, conditions: Table 9; dust mixed with Carbofuran; RN
row,SMILES,"death ratio (%), mixture with Carbofuran"
1,"CNC(=O)Oc1ccccc1OC(C)C [Compound 81, 2-isopropoxyphenyl-N-methylcarbamate, reference compound]",30.0%

# Same assay, conditions: Table 9; dust mixed with Methomyl; RN
row,SMILES,"death ratio (%), mixture with Methomyl"
1,"CNC(=O)Oc1ccccc1OC(C)C [Compound 81, 2-isopropoxyphenyl-N-methylcarbamate, reference compound]",35.0%

# Same assay, conditions: dust; compound alone; RN strain
row,SMILES,"Effect of individual compound (RN), death ratio (%) (Table 9)"
1,"CNC(=O)Oc1ccccc1OC(C)C [Compound 81, 2-isopropoxyphenyl-N-methylcarbamate, reference compound]",0%
